Assays:
HGGX39 [1] = paediatric high-grade glioma line; experiment: EC50 (inflection of fitted growth-inhibition curve) (log10 M)
In short: (§1)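 Viability readout was CellTiter-Glo luminescence, log2-transformed, normalised per plate to % activity between negative (solvent) and positive control wells, then pooled. This followed a 7-day exposure (3 days for iAstro) at 37 °C, 5% CO2 to a 10-point threefold dilution series (mean top concentration 35 μM), pin-tool delivered in triplicate to patient-derived pHGG/DIPG cell lines and astrocyte controls on 1% Geltrex-coated 384-well plates. Three- and four-parameter log-logistic fits were compared, and the one with the lowest AICc supplied EC50 and maximal response (yFin).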

HGGX6 [2] = H3.3 G34R paediatric high-grade glioma line; experiment: as above
In short: as §1

HGGX39 [3] = experiment: maximal growth inhibition (yFin) relative to DMSO / staurosporine; higher = more efficacious
In short: as §1

HGGX6 [4] = experiment: as above
In short: as §1

DIPGX29 = H3.3 K27M diffuse intrinsic pontine glioma line; experiment: area under dose-response curve of % growth inhibition (log2 RLU vs DMSO / staurosporine), 1e-11 to 1e-4 M (% x log10 M); higher = more growth inhibition
In short: (§2)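 Patient-derived pHGG/DIPG cell lines and astrocytes, cultured on 384-well plates with a 1% Geltrex coating, were given a 10-point threefold dilution series (mean top concentration 35 μM) in triplicate for 7 days (iAstro 3 days) at 37 °C, 5% CO2. CellTiter-Glo signal, log2-transformed and normalised per plate to % activity against solvent and positive controls, was fitted with a log-logistic curve or, where the sigmoid fit failed, a smoothing spline. Area under the curve was then computed by the trapezoid rule.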

DIPGX37 [5] = H3.3 K27M diffuse intrinsic pontine glioma line; experiment: as above
In short: as §2

HGGX39 [6] = experiment: as above
In short: as §2

HGGX6 [7] = experiment: as above
In short: as §2

DIPGX37 [8] = experiment: EC50 (inflection of fitted growth-inhibition curve) (log10 M)
In short: as §1

DIPGX37 [9] = experiment: maximal growth inhibition (yFin) relative to DMSO / staurosporine; higher = more efficacious
In short: as §1

SMILES | EC50 (log10 M) (HGGX39 [1]) | EC50 (log10 M) (HGGX6 [2]) | maximal growth inhibition (HGGX39 [3]) [%] | maximal growth inhibition (HGGX6 [4]) [%] | area under dose-response curve (DIPGX29) | area under dose-response curve (DIPGX37 [5]) | area under dose-response curve (HGGX39 [6]) | area under dose-response curve (HGGX6 [7]) | EC50 (log10 M) (DIPGX37 [8]) | maximal growth inhibition (DIPGX37 [9]) [%]
Cc1ccc(C(=O)Nc2ccc(Oc3cc4cnn(C)c4cc3-c3cn[nH]c3)c(F)c2)c(=O)n1-c1ccc(F)cc1 | -5.27 | -5.1 | 20.9 | 25.3 | 22.4 | 16.1 | 28.1 | 41.1 |  | 
Nc1nccc(-c2c(-c3ccc(F)cc3)ncn2C2CCCCC2)n1 |  | -4.94 |  | 21 | 16.4 | 21.5 | 21.3 | 31.7 |  | 
CC(=O)OC12COC1CC(O)C1(C)C(=O)C(O)C3=C(C)C(O)CC(O)(C(OC(=O)c4ccccc4)C21)C3(C)C (stereo not drawn) [10-DEACETYLBACCATIN-III] | -5.19 |  | 39.6 |  | 13.6 | 28.9 | 47.3 | 14.9 | -4.92 | 31.4
Clc1cc2c(NC3CCCC3)nnc(-c3ccncc3)c2cc1Cl [A-196] |  |  |  |  | 2.12 | 18.8 | 2.32 | 3.18 | -4.53 | 23.4
COc1cc(Nc2ncc3c(n2)-c2ccc(Cl)cc2C(c2c(F)cccc2OC)=NC3)ccc1C(=O)O [ALISERTIB] | -4.99 | -5.31 | 39.1 | 24.7 | 52.1 | 66.4 | 69.3 | 49.8 |  | 
C[C@@H]1CC[C@H]2[C@@H](C)C(=O)O[C@@H]3O[C@@]4(C)CC[C@@H]1[C@]32OO4 [ARTEMISININ] | -5.38 |  | 29.7 |  | 19.7 | 42.5 | 36.8 | 20.9 | -5.3 | 32.7
Cc1c(N)nc([C@H](CC(N)=O)NC[C@H](N)C(N)=O)nc1C(=O)N[C@H](C(=O)N[C@H](C)[C@@H](O)[C@H](C)C(=O)N[C@H](C(=O)NCCc1nc(-c2nc(C(=O)NCCC[S+](C)C)cs2)cs1)[C@@H](C)O)[C@@H](OC1OC(CO)C(O)C(O)C1OC1OC(CO)C(O)C(OC(N)=O)C1O)c1cnc[nH]1 (stereo partly drawn) [BLEOMYCIN] |  |  |  |  | 22.6 | 40.4 | 19.5 | 6.9 | -5.22 | 24.8
C/C=C(\C)C(=O)N[C@@H](c1ccccc1)[C@@H](O)C(=O)O[C@H]1C[C@@]2(O)[C@@H](OC(=O)c3ccccc3)[C@@H]3[C@]4(OC(C)=O)CO[C@@H]4C[C@H](O)[C@@]3(C)C(=O)[C@H](OC(C)=O)C(=C1C)C2(C)C [CEPHALOMANNINE] | -7.73 |  | 48.4 |  | 46.7 | 101 | 180 | 54.1 | -7.58 | 28.2
Cc1sc2c(c1C)C(c1ccc(Cl)cc1)=N[C@@H](CC(N)=O)c1nnc(C)n1-2 [CPI-203] |  |  |  |  | 26.8 | 62.1 | 47.1 | 35.8 | -6.88 | 22.3
CCc1c2c(nc3ccc(OC(=O)N4CCC(N5CCCCC5)CC4)cc13)-c1cc3c(c(=O)n1C2)COC(=O)[C@]3(O)CC [IRINOTECAN] | -5.98 |  | 53.2 |  | 52.4 | 56.4 | 107 | 25.9 | -7.09 | 20.5
CCC(C)n1ncn(-c2ccc(N3CCN(c4ccc(OCC5COC(Cn6cncn6)(c6ccc(Cl)cc6Cl)O5)cc4)CC3)cc2)c1=O (stereo not drawn) [ITRACONAZOLE] |  |  |  |  | 20 | 56.7 | 28.4 | 29.7 | -4.91 | 62.3
N[C@@H](Cc1cc(I)c(Oc2ccc(O)c(I)c2)c(I)c1)C(=O)O [LIOTHYRONINE] | -5.95 |  | 26.4 |  | 31.4 | 62.2 | 51.4 | 11.9 | -5.69 | 26.5
Cc1cc(=O)n(C)c2cc(N3C(=O)CC[C@H](NS(=O)(=O)CC(C)C)[C@H]3c3ccc(Cl)cc3)ccc12 [LP-99] |  | -4.95 |  | 22.4 | 12.9 | 10.2 | 11.5 | 21.2 |  | 
CC[C@H](C)C(=O)O[C@H]1CCC=C2C=C[C@H](C)[C@H](CC[C@@H]3C[C@@H](O)CC(=O)O3)[C@H]21 [MEVASTATIN] | -4.97 |  | 57.7 |  | 32.6 | 41.4 | 56.7 | 23.3 | -5.53 | 20.8
O=C1c2c(O)ccc(O)c2C(=O)c2c(NCCNCCO)ccc(NCCNCCO)c21 [MITOXANTHRONE] |  |  |  |  | 116 | 104 | 116 | 112 | -4.79 | 81.9
COc1ccc(C2CC(c3ccccc3)=NN2c2ccc(S(N)(=O)=O)cc2)cc1 (stereo not drawn) [ML141] | -4.54 |  | 38.3 |  | 26.6 | 33.4 | 20 | 33.7 |  | 
Cc1sc2c(c1C)C(c1ccc(Cl)cc1)=N[C@@H](CC(=O)Nc1ccc(O)cc1)c1nnc(C)n1-2 [OTX015] | -5.11 |  | 50.6 |  | 30.3 | 80 | 53.1 | 33.7 | -6.7 | 29.5
CC(=O)O[C@H]1C(=O)[C@@]2(C)[C@H]([C@H](OC(=O)c3ccccc3)[C@]3(O)C[C@H](OC(=O)[C@H](O)[C@@H](NC(=O)c4ccccc4)c4ccccc4)C(C)=C1C3(C)C)[C@]1(OC(C)=O)CO[C@@H]1C[C@@H]2O [PACLITAXEL] | -8.21 |  | 42.5 |  | 42.1 | 99.3 | 179 | 55.2 | -8.09 | 24.3

From the supplement of paper PMC8253809
